Laboratory results taken from patent US20040039052A1, “Urinary incontinence therapy” (priority 1997, published 2004).

How the values were obtained:
[1] = system: patients with MS (detrusor hyperreflexia); assay: separate study: RTX instillation in patients with MS; assay type: in vivo, human
Protocol: A separate study was undertaken with administration of 0.1 μM RTX to a group of 6 patients with MS. […] One patient was bedridden with an indwelling catheter. Despite the catheter, occasional bursts of detrusor hyperreflexia caused explosive expulsions of urine such that urine leaked around the catheter. No urinary dynamic measurements were taken but 100 ml of 1 μM solution was administered. […] The remaining four patients were all on crutches or in wheelchairs. They were on scheduled intermittent self-catheterizations and remained so.

[2] = solubility and stability of RTX solutions; assay type: physicochemical
Protocol: The molecular weight of RTX is 628.72 for the clinical studies described herein. A 10 μM stock solution, 6.3 μg/mL was prepared by dissolving 6.32 mg of 99.5% pure RTX in 1000 mL absolute ethanol. Solutions for therapeutic use were diluted from the ethanolic stock solution into sterile normal saline (0.9% w/v NaCl) or a saline-ethanol mixture such that the final solution was 10% (v/v) ethanol. Therapeutic efficacy was tested for RTX concentrations of 1 μM, 0.1 μM and 0.05 μM. […] Prior to administration, RTX solutions were sterilized by filtration.
However, the compounds are soluble in ethanol. Pure ethanol cannot be instilled into the bladder because it causes severe pain and irritation of the bladder mucosa. […] The foregoing solution, after filter sterilization, can be directly instilled into the urinary bladder. A typical instillation volume is 100 ml, although it is possible to instill somewhat larger or smaller volumes, as is understood in the art.

[3] = system: normal human volunteers and patients with unstable detrusor; conditions: 10^−8M (0.01 μM) RTX intravesicular, cited from earlier work
[4] = four MS patients, one month after treatment

With `C=C(C)[C@]12C[C@@H](C)[C@@]34O[C@](Cc5ccccc5)(O[C@@H]1[C@@H]3C=C(COC(=O)Cc1ccc(O)c(OC)c1)C[C@]1(O)C(=O)C(C)=C[C@@H]41)O2` [RTX, resiniferatoxin] the side effects ([1]; even at a dose of 1.0 μM RTX) was “No side effects, particularly no meaningful burning or irritation were observed”, the Capacity [1, 4] was “increased in all patients” and the urine loss pressure [1, 4] was “decreased in all four although minimally in two”. The “stability of stock solution” value ([2]; absolute ethanol, stored in the dark, preferably refrigerated) was “stably maintained”, the solubility in water ([2]; completely aqueous medium, therapeutic dose) was “insufficiently soluble in water” and the stability of solutions ([2]; ethanolic stock and dilutions in saline, 10% (v/v) ethanol, 4° C., shielded from light) was “stable under refrigeration (4° C.) shielded from light”. For the same molecule, the “solubility after dilution of ethanolic solution into aqueous medium” value ([2]; normal saline, not greater than 20% (v/v) ethanol) was “RTX remains in solution”, the sensations upon administration ([3]; human subjects) was “no micturition reflex or burning upon administration” and the “volume required to elicit first desire to void” value ([3]; patients having unstable detrusor) was “Three of five patients having unstable detrusor reported an increased volume”.
